4 compounds from ChEMBL document CHEMBL3588856, “Structure-Based Development of a Protein-Protein Interaction Inhibitor Targeting Tumor Necrosis Factor Receptor-Associated Factor 6” (J Med Chem, 2015) can be followed below.

Active and inactive are the calls of the source. No cut-off for these calls is given here.

Data set [1] has as its target T1, TNF receptor-associated factor 6 (Homo sapiens, UniProt Q9Y4K3).
T1 sequence (Q9Y4K3 whole entry): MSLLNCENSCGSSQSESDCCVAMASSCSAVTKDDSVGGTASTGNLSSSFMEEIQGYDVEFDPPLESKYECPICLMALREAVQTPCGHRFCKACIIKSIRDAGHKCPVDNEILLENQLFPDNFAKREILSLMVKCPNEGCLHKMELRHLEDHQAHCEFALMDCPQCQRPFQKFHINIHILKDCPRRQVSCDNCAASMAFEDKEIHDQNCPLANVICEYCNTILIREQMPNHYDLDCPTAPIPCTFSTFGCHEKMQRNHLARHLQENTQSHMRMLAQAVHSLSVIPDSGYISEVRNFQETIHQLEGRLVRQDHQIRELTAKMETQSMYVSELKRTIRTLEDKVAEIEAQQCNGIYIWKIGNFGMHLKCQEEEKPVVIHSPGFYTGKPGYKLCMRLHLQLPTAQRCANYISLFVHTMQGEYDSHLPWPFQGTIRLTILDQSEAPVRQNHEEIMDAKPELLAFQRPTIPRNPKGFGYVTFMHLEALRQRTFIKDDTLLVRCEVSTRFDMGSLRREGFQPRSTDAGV
Briefly: Inhibition of human TRAF6 interaction with biotinylated RANK peptide by NMR interaction analysis.

In data set [2] the target is T2, TNF receptor-associated factor 6 (Homo sapiens) (UniProt Q9Y4K3).
T2 sequence (whole entry): T1 sequence (Q9Y4K3 whole entry)
The note with it: 200 uM.
Description: Competitive inhibition of human TRAF6 interaction with biotinylated RANK peptide at 200 uM by NMR interaction analysis

Data set [3] deals with T2, TNF receptor-associated factor 6 (Homo sapiens). Nature of the data set: Induction of human TRAF6 aggregation by NMR titration.
Data set [4] has as its system Monocyte. Nature of the data set: Inhibition of BALB/c mouse primary bone marrow derived monocytes differentiation after 7 days at 150 uM by osteoclast differentiation assay. The note with it: 168 h. Format: functional.
A short description of data set [5]: Cytotoxicity against BALB/c mouse primary bone marrow derived monocytes after 7 days by osteoclast differentiation/AlamarBlue assay. Format: cell-based. The note with it: monocyte, 168 h. A general note: Resazurin is reduced to fluorescent resorufin, in cell work by metabolically active cells.
For data set [6], the target named is T2, TNF receptor-associated factor 6 (Homo sapiens). Briefly: Binding affinity to human TRAF6 using immobilized biotinylated RANK peptide from by SPR analysis. A general note: Surface plasmon resonance follows binding to a sensor surface in real time, without labels.
In data set [7] the test system is Monocyte. Nature of the data set: Inhibition of BALB/c mouse primary bone marrow derived monocytes differentiation after 7 days by osteoclast differentiation assay. It is filed as functional, cell-based.

By Kd is commonly meant the equilibrium constant for the complex coming apart. Turning to `CS(=O)(=O)NC(=O)c1ccc(NC(=O)Cn2c(=O)sc3ccc(Cl)cc32)cc1`, in data set [1], binding was characterised by a dissociation constant (Kd) of 990 µM.

In turn, `O=C(Cn1c(=O)sc2ccc(Cl)cc21)Nc1ccc(C(=O)O)cc1` returned a dissociation constant Kd in data set [1] of 1700 µM.

The term inhibition denotes the share of the control response that was lost under treatment. For the compound `COc1ccc(S(=O)(=O)NC(=O)c2ccc(NC(=O)Cn3c(=O)sc4ccc(Cl)cc43)cc2)cc1Cl`, the inhibition entry in data set [2] was “Active”. The outcome in data set [3] was inactive. In the data set on Monocyte [4], this compound registered an inhibition at 150 µM of 40%. Binding in data set [1] was put at a Kd of 35 µM.

Turning to `O=C(Cn1c(=O)sc2ccccc21)Nc1ccc(C(=O)O)cc1`, the Activity entry in data set [5] is “Non-toxic”. The inhibition result (in data set [6]; in the data set with Monocyte [7]) was “Active” in each case. Besides, the outcome in data set [3] was inactive. Also, binding in data set [1] was characterised by a dissociation constant (Kd) of 1900 µM.
